Data reported in patent US20040171093A1, “Methods for detecting deficient cellular membrane tightly bound magnesium for disease diagnoses” (priority 1999, published 2004).
“And” between values parts separate entries of the source, which are not always exact repeats. Equal entries are not always repeated. “Also recorded” adds a separate entry of the source. Ends that are not written are not given here.

Key:
[1] = test system: magnesium deficient erythrocytes; assay: Promotion of magnesium binding in magnesium depleted erythrocyte membranes (in vitro screen); assay type: cell-based, human; details: for Magnesium Binding: aged Mg-deficient human erythrocytes incubated in 5 mL medium, 37° C., three hours, peptide amount equimolar to 6 ugm Substance P, quadruplet mean (n) or duplicate values; for measurable binding of magnesium ions to the erythrocyte membrane (in words): uptake in excess of that with KRPG alone; for approximate ratios of binding activities: magnesium uptake in excess of KRPG alone, normal plasma = 1; for activity relative to Substance P in promoting magnesium binding / correcting the MgBD: equal molar amounts tested
Procedure: In order to identify those substances which promote binding of magnesium ion to plasma membranes (tightly bound magnesium ion) and that ameliorate or correct the magnesium binding defect, a deficit of membrane tightly bound magnesium was created experimentally in erythrocytes without the magnesium binding defect. Human erythrocytes were obtained from blood samples that had been drawn two days previously and kept for varying periods of time at room temperature, or at approximately 5° C. Preferred results were obtained with those samples in which either sodium citrate or sodium heparin was the anticoagulant. The length of time held and time held before moving to room temperature or 5° C is not believed to be critical. Although it was possible to create the MgBD in cells held as above, more reproducible results would be expected if fresh drawn blood were to be used.
The following procedure was employed to generate a deficit of plasma membrane tightly bound magnesium ion in the erythrocytes. Art recognized adaptations of this procedure can be used for generation of a deficit in other somatic cells, such as from urine or buccal cells. Samples of blood described above were kept at room temperature overnight and then pooled in a beaker placed in crushed ice and the blood was stirred slowly to collect any fibrin that may have formed. The blood was then centrifuged (600×g, 15 minutes) at 5° C. and the plasma layer removed by aspiration. Residual plasma was removed from the cells by suspending them twice in equal volumes of cold normal saline and then twice in equal volumes of cold Alsever's solution (trisodium citrate 32.5 mM, citric acid 2.7mM, D-glucose 114 mM, NaCl 137 mM, pH 6.1). Finally, the washed cells were suspended again in an equal volume of the same Alsever's solution to which approximately 1.25 mg/ml of sodium deoxycholate was added. This suspension was filtered through cheese cloth and kept at 4° C. with gently mixing once each day. Although the Alsever's plus sodium deoxycholate solution is a preferred example of a holding solution, any cell stabilizing buffer plus sodium deoxycholate may be utilized in the practice of the invention.
The concentration of magnesium ion tightly bound to the erythrocyte membranes was determined by using 5 mL portions of the approximately two day old blood sample and the stored erythrocyte suspension. After these portions were centrifuged as above and the supernatant fluids aspirated, the residues of cells were suspended four times in 15 mL portions of cold hemolyzing buffer (Tris Tris HCl 5 mM, sucrose 14 mM, pH 7.4) and centrifuged (15,000×g, 15 minutes). The supernatant fluids were removed by gentle aspiration. The decanting procedure was repeated as necessary to remove all of the dark red residue (Example 1). The penultimate residue was resuspended by gently pouring the hemolyzing buffer onto the residue and decanting the readily suspended cell membranes from the small, dark red, dense residue which adhered to the centrifuge tube. The final, nearly colorless residue of membranes was transferred and brought to a total volume of 25 mL in a volumetric flask using the hemolyzing buffer. These preparations of erythrocyte membranes were stored at 4° C. until the total protein contents were determined by the Bicinchoninic Acid procedure and the total magnesium contents determined by atomic absorption spectroscopy. From these values the concentrations of tightly bound magnesium in the cell membranes were expressed as nanograms of magnesium per 0.50 mg of membrane protein. This determination of the magnesium binding was repeated each day or so until the level of binding first ceased to decrease.
Preparations of aged erythrocytes in which the MgBD has been developed were used as soon as possible in incubations with normal blood plasma, and other magnesium containing fluids, in search of substances which could correct the MgBD (Example 7). […]

normotensive subjects = details: Qu and Stuesse, 1990; cited from earlier work
Sprague-Dawley rats [2] = assay: Systolic blood pressure after i.v. peptide, tail-cuff method, normotensive control rats; assay type: in vivo, rat
Procedure: (§1) In this procedure the systolic blood pressure was measured in conscious animals by using the photoelectric, tail-cuff, compression method as follows. The animal was placed in an incubator at 40° for twenty minutes in order to elevate its body temperature. The cuff, which was placed around the tail, included sensor which provided the pressure signal which was recorded onto a chart. After the pre-injection pressure was recorded, the animal was immediately injected through the tail vein with 168 uL of a freshly prepared solution of the tetrapeptide (SEQ ID NO:2) in normal saline.
(§2) In the initial experiments, the blood pressure was recorded at 5, 10, 30, 60 and 300 minutes after the administration of the tetrapeptide. There was no further decrease in the blood pressure after 10 minutes and the blood pressure returned to the pre-injection level within 60 minutes. Therefore, in further experiments, the blood pressure of each animal was recorded 10 minutes after the injection of the tetrapeptide.

Sprague-Dawley rats [3] = assay: Plasma glucose (anthrone method) after i.v. tetrapeptide, Sprague-Dawley rats; assay type: in vivo, rat; details: 3.0 ugm/kg i.v., 30 minutes
Procedure: (§3) The rats were allowed to rest for one day and then one-half of the SS/Jr and one-half of the Sprague-Dawley rats were injected as above with 3.0 ugm/kg of the tetrapeptide (SEQ ID NO:2). All of the rats were sacrificed by decapitation 30 minutes later and the blood from each rat was collected in a centrifuge tube containing sufficient heparin to prevent clotting. The blood samples were centrifuged (1,000×g, 20 minutes) at 5° C. and the individual plasma layers were removed and frozen. The residues of erythrocytes were suspended three times in cold, normal saline and then were hemolyzed by the addition of 15 mL of cold hemolyzing buffer (10 mM Tris Tris HCl, pH 7.4). This buffer was then used in the isolation of the erythrocyte membranes from these hemolysates and in the determination of their total magnesium and protein contents as described above.
(§4) The glucose concentrations in the reserved plasma samples were determined by the anthrone method (Rendina, 1971). The concentrations in the injected SS/Jr rats were not different from those of the SS/Jr rats which were not injected with the tetrapeptide. This was also the case with the Sprague-Dawley control rats. Thus, the values of the SS/Jr rats were combined and compared with the combined, control values of the Sprague-Dawley rats as follows: 149.2±7.5 (15) vs. 100.7±11.2 (4) mg/100 mL., P<0.01. […]

Sprague-Dawley rats [4] = assay: Tightly bound magnesium in erythrocyte membranes after i.v. tetrapeptide, normotensive control rats; assay type: in vivo, rat; details: intravenous administration
Procedure: as §3

SS/Jr rats [5] = assay: Systolic blood pressure after i.v. tetrapeptide, tail-cuff method, hypertensive rats; assay type: in vivo, rat
Procedure: as §1, §2

[6] = test system: erythrocytes from essential hypertensive patients; assay: Remediation of magnesium binding defect in vitro, erythrocytes from essential hypertensive patients; assay type: cell-based, human; details: incubated for 3 hrs. at 37° C.
Procedure: The effect of the tetrapeptide (SEQ ID NO:2) and pentapeptide (SEQ ID NO:1) on the binding of magnesium by the erythrocyte membrane was ascertained by measuring the magnesium contents of ghosts after the erythrocytes from essential hypertensive patients and normal controls were incubated with one or both of the peptides. For this purpose, two 10 ml samples of heparinized blood from essential hypertensive subjects were utilized. After the plasma was separated from the erythrocytes, the erythrocytes were washed twice with 10 ml of cold erythrocyte wash and the peptides were then added to the erythrocytes from the hypertensive subjects and the mixtures were incubated for 3 hrs. at 37° C., chilled on ice and the erythrocyte ghosts were prepared and analyzed for magnesium and protein as described in Example 1.

SS/Jr rats [7] = assay: Tightly bound magnesium in erythrocyte membranes after i.v. tetrapeptide, hypertensive rats; assay type: in vivo, rat; details: intravenous administration
Procedure: as §3

SS/Jr rats [8] = assay: Plasma glucose (anthrone method) after i.v. tetrapeptide, SS/Jr rats; assay type: in vivo, rat; details: 3.0 ugm/kg i.v., 30 minutes
Procedure: as §3, §4

| Substance | measurable binding of magnesium ions to the erythrocyte membrane (in words) [1] | approximate ratios of binding activities [1] | binding of magnesium to erythrocyte membranes of hypertensive subjects after incubation (in words) [6] | Magnesium Binding [1] | effect on blood pressure of normotensive rats (in words) (Sprague-Dawley rats [2]) | activity relative to Substance P in promoting magnesium binding / correcting the MgBD [1] | other results |
| --- | --- | --- | --- | --- | --- | --- | --- |
| 1-9 Substance P: commercial preparation of amidated peptide derived from the N-terminal region of Substance P (RPKPQQFFG-NH2; UniProt P20366 58-66, looked up, fragment) [reference compound] | no measurable activity |  |  | 500 Nanograms of magnesium per 0.50 mg of membrane protein and 490 Nanograms of magnesium per 0.50 mg of membrane protein |  |  |  |
| Arg-Pro-Lys-Pro-Gln-Gln-Phe-Phe-Gly-Leu-Met-NH2 [Substance P, reference compound] | promoted measurable binding | ~1.1 |  |  |  |  | effect of intravenously injected Substance P on blood pressure (normotensive subjects): the reduction in blood pressure resulted in lower than normal values |
| Phe-Gly-Leu-Met-NH2 (FGLM-NH2; listed as Homo sapiens) [tetrapeptide] | promoted measurable binding | ~4.6 | returned to normal |  | unaffected; also recorded: had no influence; also recorded: did not affect the blood pressures; also recorded: had no effect on systolic blood pressure | about four times as active as Substance P; also recorded: significantly more active than Substance P; also recorded: several fold more active than Substance P | plasma glucose concentration, injected versus not injected (Sprague-Dawley rats [3]): not different; effect on erythrocyte magnesium binding of control rats (in words) (Sprague-Dawley rats [4]): unaffected; also recorded: had no influence; effect on blood pressure of hypertensive rats (in words) (SS/Jr rats [5]; SS/Jr rats, intravenous administration): fallen to control values; also recorded: corrected; also recorded: reduced the hypertensive blood pressure of the SS/Jr rats to the normal blood pressure of their controls; also recorded: reduced its systolic blood pressure from an elevated value of 210 mm Hg to the control value; time for blood pressure to fall to control values / no further decrease (SS/Jr rats [5]; after i.v. injection): ≤ 10 min; time for blood pressure to return to the pre-injection level (SS/Jr rats [5]; after i.v. injection): ≤ 60 min; Magnesium Binding ([1]; listed as 8-11 Substance P): 968 Nanograms of magnesium per 0.50 mg of membrane protein and 954 Nanograms of magnesium per 0.50 mg of membrane protein; correction of the magnesium binding defect in erythrocytes (in words) (SS/Jr rats [7]): corrected; also recorded: corrects the magnesium binding defect; plasma glucose concentration, injected versus not injected (SS/Jr rats [8]): not different |

Now from value to substance, other results behind:

| measurable binding of magnesium ions to the erythrocyte membrane (in words) [1] | approximate ratios of binding activities [1] | binding of magnesium to erythrocyte membranes of hypertensive subjects after incubation (in words) [6] | Substance | Magnesium Binding [1] | effect on blood pressure of normotensive rats (in words) (Sprague-Dawley rats [2]) | activity relative to Substance P in promoting magnesium binding / correcting the MgBD [1] | other results |
| --- | --- | --- | --- | --- | --- | --- | --- |
| no measurable activity |  |  | 9-11 Substance P: commercial preparation of amidated peptide derived from the C-terminal region of Substance P (Gly-Leu-Met-NH2; UniProt P20366 66-68, looked up, fragment) [reference compound] | 546 Nanograms of magnesium per 0.50 mg of membrane protein and 510 Nanograms of magnesium per 0.50 mg of membrane protein |  |  |  |
| promoted measurable binding | ~3.7 | returned to normal | Phe-Phe-Gly-Leu-Met-NH2 (FFGLM-NH2; listed as Homo sapiens) [pentapeptide] |  | had no effect on systolic blood pressure | about four times as active as Substance P; also recorded: significantly more active than Substance P; also recorded: several fold more active than Substance P | Magnesium Binding ([1]; listed as 7-11 Substance P): 886 Nanograms of magnesium per 0.50 mg of membrane protein and 866 Nanograms of magnesium per 0.50 mg of membrane protein |
